Biological target: ENPP-1 (Ectonucleotide Pyrophosphatase/Phosphodiesterase 1) (Homo sapiens (Human), UniProt P22413)
Experiment: ENPP1 inhibition assay (AMP Glo, cGAMP substrate)
Assay type: biochemical
Details: cGAMP 20 μM substrate, ENPP1 1 nM
Protocol: IC50 values of compounds against ENPP-1 (Ectonucleotide Pyrophosphatase/Phosphodiesterase 1) were determined at Integral BioSciences (India) using AMP Glo (Promega, Cat #V5011). Assay was performed in a 30 μL final volume in a white 96-well Half Area plate (Costar,Cat #3693). Dose response curve for the compounds were prepared in duplicates with starting conc. at 5 μM and a three-fold titration was performed. The reaction buffer consisted of 50 mM Tris (pH 8.0), 0.5 mM CaCl2), 1 μM ZnCl2, 250 mM NaCl and 0.1 mg/ml BSA. To the compound dilution, 15 μL of ENPP1 enzyme (R&D Systems; Cat #6136-EN-010) was added to each well (final conc. 1 nM) and the mix was pre-incubated for 15 min at RT. An equal volume (15 μL) containing cGAMP (Sigma, Cat #SML-1229) (final conc. 20 μM) was added to initiate the enzyme reaction and the reaction was incubated for 30 min at RT. The reaction was then stopped by heating at 90° C. for 3 minutes. 10 μl of reaction was then transferred to 384 well white, medium binding plates (Grenier, Cat #781075) to which 10 μl of AMP-Glo Reagent 1 was added and mixed well and incubated for 1 hour at 25° C. Following 60 min incubation, 20 μL of detection mixture was added to the enzyme reaction bringing the final volume to 40 μL. The reaction was further incubated for 60 min at RT after which the plates were read using BioTek Plate reader.
Analysis was done using the standard curve by non-linear regression, variable slope inhibitor curve fits (Graph-Pad Prism) and IC50's of compounds were determined wherever possible.

Chain of ENPP-1 (Ectonucleotide Pyrophosphatase/Phosphodiesterase 1) (P22413 whole entry): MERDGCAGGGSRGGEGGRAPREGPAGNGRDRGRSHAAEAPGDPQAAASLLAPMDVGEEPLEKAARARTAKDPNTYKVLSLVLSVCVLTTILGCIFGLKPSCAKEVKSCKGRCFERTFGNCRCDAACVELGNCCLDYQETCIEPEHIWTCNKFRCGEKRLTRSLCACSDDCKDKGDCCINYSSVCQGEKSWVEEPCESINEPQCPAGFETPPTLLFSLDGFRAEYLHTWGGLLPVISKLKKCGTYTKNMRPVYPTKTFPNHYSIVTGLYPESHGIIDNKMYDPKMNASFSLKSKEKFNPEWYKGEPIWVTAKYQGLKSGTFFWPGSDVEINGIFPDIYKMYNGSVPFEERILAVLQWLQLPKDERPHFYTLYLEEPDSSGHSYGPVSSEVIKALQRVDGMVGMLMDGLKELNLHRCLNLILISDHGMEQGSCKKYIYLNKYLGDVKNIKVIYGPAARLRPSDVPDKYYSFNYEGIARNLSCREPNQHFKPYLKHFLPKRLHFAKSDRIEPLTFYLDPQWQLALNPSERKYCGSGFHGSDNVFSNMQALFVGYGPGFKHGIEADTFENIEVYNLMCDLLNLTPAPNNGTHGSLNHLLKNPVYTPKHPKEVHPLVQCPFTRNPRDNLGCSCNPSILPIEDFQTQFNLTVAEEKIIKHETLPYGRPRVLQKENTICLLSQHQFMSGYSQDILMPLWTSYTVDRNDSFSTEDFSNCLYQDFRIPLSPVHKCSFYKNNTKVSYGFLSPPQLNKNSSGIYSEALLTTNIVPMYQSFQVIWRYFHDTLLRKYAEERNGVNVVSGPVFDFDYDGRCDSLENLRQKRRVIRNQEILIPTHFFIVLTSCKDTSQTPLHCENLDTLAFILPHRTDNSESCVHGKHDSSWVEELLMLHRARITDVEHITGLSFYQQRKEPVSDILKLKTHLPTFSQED

| SMILES | IC50 [µM] |
| --- | --- |
| Cc1cc(Cl)n2ncnc(N3CC(CCN(C)S(N)(=O)=O)C3)c12 [Compound 1.84, N-(2-(1-(7-chloro-5-methylpyrrolo[1,2-f][1,2,4]triazin-4-yl)azetidin-3-yl)ethyl)-N-methylsulfamide] | > 2.25 |
| COc1cc2ncnc(N3CC(CCCS(=O)(=O)O)C3)c2cc1OC [Compound 1.65, 3-(1-(6,7-dimethoxyquinazolin-4-yl)azetidin-3-yl)propane-1-sulfonic acid] | 0.078 |
| CN(C1CC2(C1)CN(c1nc(N)nc3[nH]cnc13)C2)S(N)(=O)=O [Compound 1.108, N-(2-(2-amino-9H-purin-6-yl)-2-azaspiro[3.3]heptan-6-yl)-N-methylsulfamamide] | > 3 |
| Cc1ccn2ncnc(N3CC4(CC(N(C)S(N)(=O)=O)C4)C3)c12 [Compound 1.73] | 0.247 |
| COc1cc2nccc(N3CC(CCNS(N)(=O)=O)C3)c2cc1OC [Compound 1.11, (2-(1-(6,7-dimethoxyquinolin-4-yl)azetidin-3-yl)ethyl)aminosulfonamide] | 0.09 |
| COc1cc2ncnc(N3CC(CCC(=O)O)C3)c2cc1OC [Compound 1.5, 3-(1-(6,7-dimethoxyquinazolin-4-yl)azetidin-3-yl)propanoic acid] | 0.16 |
| COc1cc2nc(C3CC3)nc(N3CC(CCNS(N)(=O)=O)C3)c2cc1OC [Compound 1.25, 4-(3-(2-sulfamoylaminoethyl)azetidine-1-yl)-2-cyclopropyl-6,7-dimethoxyquinazoline] | 0.66 |
| COc1cc2nncc(N3CC4(CC(N(C)S(N)(=O)=O)C4)C3)c2cc1OC [Compound 1.68, 4(6-N-methylsulfamoylamino)-2-azaspiro[3.3]heptan-2-yl-6,7-dimethoxycinnoline] | 0.003 |
| COc1ccc2c(N3CC(CCNS(N)(=O)=O)C3)c(C#N)cnc2c1 [Compound 1.13, 4-(3-(2-sulfamoylaminoethyl)azetidine-1-yl)-7-methoxyquinoline-3-carbonitrile] | 0.011 |
| Cc1cc(Cl)n2ncnc(N3CC4(CC(N(CC5CC5)S(N)(=O)=O)C4)C3)c12 [Compound 1.115, N-(2-(7-chloro-5-methylpyrrolo[2,1-f][1,2,4]triazin-4-yl)-2-azaspiro[3.3]heptan-6-yl)-N-(cyclopropylmethyl)sulfamamide] | 0.051 |
| Cc1cc(Cl)n2nc(C(C)C)nc(N3CC4(CC(N(C)S(N)(=O)=O)C4)C3)c12 [Compound 1.101, N-(2-(7-chloro-2-isopropyl-5-methylpyrrolo[1,2-f][1,2,4]triazin-4-yl)-2-azaspiro[3.3]heptan-6-yl)-N-methylsulfamide] | > 3 |
| Cc1cc(Cl)n2ncnc(N3CC4(CC(N(CC(F)F)S(N)(=O)=O)C4)C3)c12 [Compound 1.99, N-(2-(7-chloro-5-methylpyrrolo[2,1-f][1,2,4]triazin-4-yl)-2-azaspiro[3.3]heptan-6-yl)-N-(2,2-difluoroethyl)sulfamamide] | 0.01 |
| COc1cc2ncnc(N3CC(/C=C/S(N)(=O)=O)C3)c2cc1OC [Compound 1.55, (E)-2-(1-(6,7-dimethoxyquinazolin-4-yl)azetidin-3-yl)ethenesulfonamide] | 0.036 |
| Cc1cc(Cl)n2ncnc(N3CC4(CC(N(CC5CCCCC5)S(N)(=O)=O)C4)C3)c12 [Compound 1.117, N-(2-(7-chloro-5-methylpyrrolo[2,1-f][1,2,4]triazin-4-yl)-2-azaspiro[3.3]heptan-6-yl)-N-(cyclohexylmethyl)sulfamide] | 0.239 |
| Cc1cc(Cl)n2ncnc(N3CC4(CC(N(C)Cc5ccc(S(N)(=O)=O)cc5)C4)C3)c12 [Compound 1.133, 4-(((2-(7-chloro-5-methylpyrrolo[2,1-f][1,2,4]triazin-4-yl)-2-azaspiro[3.3]heptan-6-yl)(methyl)amino)methyl)benzenesulfonamide] | 0.27 |
| Cc1cc(Cl)n2ncnc(N3CC4(CC(N(CC(C)(F)F)S(N)(=O)=O)C4)C3)c12 [Compound 1.128] | 0.03 |
| Cc1c(C#N)cn2ncnc(N3CC4(CC(N(C)S(N)(=O)=O)C4)C3)c12 [Compound 1.78, N-(2-(6-cyano-5-methylpyrrolo[1,2-f][1,2,4]triazin-4-yl)-2-azaspiro[3.3]heptan-6-yl)-N-methylsulfamamide] | 0.964 |

| SMILES | IC50 [µM] |
| --- | --- |
| COc1cc2ncnc(N3CC(CCNS(N)(=O)=O)(c4ccccc4)C3)c2cc1OC [Compound 1.58, 4-3-(2-(sulfamoylamino)ethyl)-3-phenylazetidin-1-yl-6,7-dimethoxyquinazoline] | 0.66 |
| Cc1cc(Br)n2ncnc(N3CC4(CC(N(C)S(N)(=O)=O)C4)C3)c12 [Compound 1.79, N-(2-(7-bromo-5-methylpyrrolo[1,2-f][1,2,4]triazin-4-yl)-2-azaspiro[3.3]heptan-6-yl)-N-methylsulfamamide] | 0.053 |
| COc1cc2ncc(C#N)c(N3CC4(CC(NS(N)(=O)=O)C4)C3)c2cc1OC [Compound 1.24, 4-(6-sulfamoylamino-2-azaspiro[3.3]heptan-2-yl)-6,7-dimethoxyquinoline-3-carbonitrile] | 0.002 |
| Cc1cc(Cl)n2ncnc(N3CC4(CC(N(CCF)S(N)(=O)=O)C4)C3)c12 [Compound 1.127, N-[2-(7-chloro-5-methylpyrrolo[2,1-f][1,2,4]triazin-4-yl)-2-azaspiro[3.3]hept-6-yl]-2-fluoroethylsulfuric diamide] | 0.043 |
| CCCCN(C1CC2(C1)CN(c1ncnn3c(Cl)cc(C)c13)C2)S(N)(=O)=O [Compound 1.114, N-butyl-N-(2-(7-chloro-5-methylpyrrolo[2,1-f][1,2,4]triazin-4-yl)-2-azaspiro[3.3]heptan-6-yl)sulfamamide] | 0.039 |
| Cc1cc(Cl)n2ncnc(N3CC4(CC(N(CC(O)C(F)(F)F)S(N)(=O)=O)C4)C3)c12 (stereo not shown) [Compound 1.120, N-(2-(7-chloro-5-methylpyrrolo[2,1-f][1,2,4]triazin-4-yl)-2-azaspiro[3.3]heptan-6-yl)-N-(3,3,3-trifluoro-2-hydroxypropyl)sulfamamide] | 0.018 |
| Cc1c(Cl)cn2ncnc(N3CC4(CC(N(C)S(N)(=O)=O)C4)C3)c12 [Compound 1.75, N-[2-(6-chloro-5-methylpyrrolo[2,1-f][1,2,4]triazin-4-yl)-2-azaspiro[3.3]hept-6-yl]-N-methylsulfuric diamide] | 0.391 |
| COc1ccc2c(N3CC(CCNS(N)(=O)=O)C3)ncnc2c1 [Compound 1.8, (2-(1-(7-methoxyquinazolin-4-yl)azetidin-3-yl)ethyl)aminisulfonamide] | 0.008 |
| COc1cc2ncc(C#N)c(N3CC(CCNS(N)(=O)=O)C3)c2cc1OC [Compound 1.12, (2-(1-(3-cyano-6,7-dimethoxyquinolin-4-yl)azetidin-3-yl)ethyl)aminisulfonamide] | 0.004 |
| Cc1cc(Cl)n2ncnc(N3CC4(CC(N(C5CCC5)S(N)(=O)=O)C4)C3)c12 [Compound 1.111, N-(2-(7-chloro-5-methylpyrrolo[2,1-f][1,2,4]triazin-4-yl)-2-azaspiro[3.3]heptan-6-yl)-N-cyclobutylsulfamamide] | 0.398 |
| Cc1cc(Cl)n2ncnc(N3CC4(CC(N(CC5CCC(F)(F)CC5)S(N)(=O)=O)C4)C3)c12 [Compound 1.118, N-(2-(7-chloro-5-methylpyrrolo[2,1-f][1,2,4]triazin-4-yl)-2-azaspiro[3.3]heptan-6-yl)-N-((4,4-difluorocyclohexyl)methyl)sulfamamide] | 0.072 |
| COc1ccc2c(N3CC(CCNS(N)(=O)=O)C3)nc(-c3ccccc3)nc2c1 [Compound 1.34, 4-(3-(2-sulfamoylaminoethyl)azetidine-1-yl)-7-methoxy-2-phenylquinazoline] | > 3 |
| Cc1cc(Cl)n2ncnc(N3CC4(CC(N(C5CC5)S(N)(=O)=O)C4)C3)c12 [Compound 1.81, N-(2-(7-chloro-5-methylpyrrolo[2,1-f][1,2,4]triazin-4-yl)-2-azaspiro[3.3]heptan-6-yl)-N-cyclopropylsulfamamide] | 0.245 |
| Cc1cc(Cl)n2ncnc(N3CC4(CC(N(CC5CCC(C(F)(F)F)CC5)S(N)(=O)=O)C4)C3)c12 (stereo not shown) [Compound 1.119, N-(2-(7-chloro-5-methylpyrrolo[2,1-f][1,2,4]triazin-4-yl)-2-azaspiro[3.3]heptan-6-yl)-N-((4-(trifluoromethyl)cyclohexyl)methyl)sulfamamide] | 0.218 |
| COc1cc2ncnc(N3CC(CCP(=O)(O)O)C3)c2cc1OC [Compound 1.29, 2-(1-(6,7-dimethoxyquinazolin-4-yl)azetidin-3-yl)ethylphosphonic acid] | 0.892 |
| CCCN(C1CC2(C1)CN(c1ncnn3c(Cl)cc(C)c13)C2)S(N)(=O)=O [Compound 1.97, N-(2-(7-chloro-5-methylpyrrolo[2,1-f][1,2,4]triazin-4-yl)-2-azaspiro[3.3]heptan-6-yl)-N-propylsulfamamide] | 0.036 |
| CN(C1CC2(C1)CN(c1ncnc3c(Cl)cn(C)c13)C2)S(N)(=O)=O [Compound 1.123, N-(2-(7-chloro-5-methyl-5H-pyrrolo[3,2-d]pyrimidin-4-yl)-2-azaspiro[3.3]heptan-6-yl)-N-methylsulfamamide] | 0.039 |
